Data reported in ChEMBL document CHEMBL1681712, “Discovery and biological activity of a novel class I PI3K inhibitor, CH5132799” (Bioorg Med Chem Lett, 2011).
Blank lines part the entries; values can stand above or below the compound they belong to. Activity calls are given as the source filed them. The rule behind the calls is not given here.

What was measured:
[1] = target: Phosphatidylinositol 4,5-bisphosphate 3-kinase catalytic subunit alpha isoform (Homo sapiens, UniProt P42336); assay: Inhibition of PI3Kalpha
Chain of Phosphatidylinositol 4,5-bisphosphate 3-kinase catalytic subunit alpha isoform (P42336 whole entry, canonical isoform): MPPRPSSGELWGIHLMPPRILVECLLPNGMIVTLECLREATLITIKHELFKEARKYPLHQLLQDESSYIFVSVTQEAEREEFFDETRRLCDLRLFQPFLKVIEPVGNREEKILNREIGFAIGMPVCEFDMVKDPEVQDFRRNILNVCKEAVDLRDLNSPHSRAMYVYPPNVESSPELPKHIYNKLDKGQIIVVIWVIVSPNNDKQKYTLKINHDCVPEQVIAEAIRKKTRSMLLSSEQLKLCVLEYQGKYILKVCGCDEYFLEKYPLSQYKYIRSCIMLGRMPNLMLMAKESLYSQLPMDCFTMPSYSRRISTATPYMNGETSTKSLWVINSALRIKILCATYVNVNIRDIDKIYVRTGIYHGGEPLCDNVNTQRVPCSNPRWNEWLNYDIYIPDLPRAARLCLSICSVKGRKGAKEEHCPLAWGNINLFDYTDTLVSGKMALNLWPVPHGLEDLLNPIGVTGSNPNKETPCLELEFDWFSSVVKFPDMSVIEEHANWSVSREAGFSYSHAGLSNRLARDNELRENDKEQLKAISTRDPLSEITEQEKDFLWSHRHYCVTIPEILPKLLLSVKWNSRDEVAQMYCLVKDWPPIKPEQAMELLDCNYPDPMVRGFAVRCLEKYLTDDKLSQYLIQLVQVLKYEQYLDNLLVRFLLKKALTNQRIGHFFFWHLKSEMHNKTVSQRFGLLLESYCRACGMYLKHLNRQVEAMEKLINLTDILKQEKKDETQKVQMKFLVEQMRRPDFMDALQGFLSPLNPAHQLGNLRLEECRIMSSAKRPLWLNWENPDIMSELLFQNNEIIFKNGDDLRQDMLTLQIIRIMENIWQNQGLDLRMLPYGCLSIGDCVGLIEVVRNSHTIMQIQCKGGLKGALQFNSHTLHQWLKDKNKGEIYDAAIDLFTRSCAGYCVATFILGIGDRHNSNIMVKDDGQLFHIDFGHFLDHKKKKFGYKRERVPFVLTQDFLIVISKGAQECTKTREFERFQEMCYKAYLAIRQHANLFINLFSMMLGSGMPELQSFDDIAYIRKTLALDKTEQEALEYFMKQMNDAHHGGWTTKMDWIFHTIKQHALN

[2] = Antiproliferative activity against human KPL4 cells; type: functional, cell-based
[3] = Half life in human liver microsomes assessed as glucuronidation; type: ADME, Microsome
[4] = Half life in human liver microsomes; type: ADME, Microsome
[5] = Oral bioavailability in mouse; type: ADME, organism-based; conditions: in vivo
[6] = test system: PC-3; assay: In vivo antitumor activity against human PC3 cells in xenograft model assessed as inhibition of tumor growth at 100 mg/kg, po qd for 11 days relative to control; type: functional; conditions: PC-3, 264 h
[7] = test system: PC-3; assay: In vivo antitumor activity against human PC3 cells in xenograft model assessed as inhibition of tumor growth at 25 mg/kg, po qd for 11 days relative to control; type: functional; conditions: PC-3, 264 h
[8] = target: Phosphatidylinositol 4-phosphate 3-kinase C2 domain-containing subunit alpha (Homo sapiens, UniProt O00443); assay: Inhibition of PI3KC2alpha
Chain of Phosphatidylinositol 4-phosphate 3-kinase C2 domain-containing subunit alpha (O00443 whole entry, the tested form may be a part): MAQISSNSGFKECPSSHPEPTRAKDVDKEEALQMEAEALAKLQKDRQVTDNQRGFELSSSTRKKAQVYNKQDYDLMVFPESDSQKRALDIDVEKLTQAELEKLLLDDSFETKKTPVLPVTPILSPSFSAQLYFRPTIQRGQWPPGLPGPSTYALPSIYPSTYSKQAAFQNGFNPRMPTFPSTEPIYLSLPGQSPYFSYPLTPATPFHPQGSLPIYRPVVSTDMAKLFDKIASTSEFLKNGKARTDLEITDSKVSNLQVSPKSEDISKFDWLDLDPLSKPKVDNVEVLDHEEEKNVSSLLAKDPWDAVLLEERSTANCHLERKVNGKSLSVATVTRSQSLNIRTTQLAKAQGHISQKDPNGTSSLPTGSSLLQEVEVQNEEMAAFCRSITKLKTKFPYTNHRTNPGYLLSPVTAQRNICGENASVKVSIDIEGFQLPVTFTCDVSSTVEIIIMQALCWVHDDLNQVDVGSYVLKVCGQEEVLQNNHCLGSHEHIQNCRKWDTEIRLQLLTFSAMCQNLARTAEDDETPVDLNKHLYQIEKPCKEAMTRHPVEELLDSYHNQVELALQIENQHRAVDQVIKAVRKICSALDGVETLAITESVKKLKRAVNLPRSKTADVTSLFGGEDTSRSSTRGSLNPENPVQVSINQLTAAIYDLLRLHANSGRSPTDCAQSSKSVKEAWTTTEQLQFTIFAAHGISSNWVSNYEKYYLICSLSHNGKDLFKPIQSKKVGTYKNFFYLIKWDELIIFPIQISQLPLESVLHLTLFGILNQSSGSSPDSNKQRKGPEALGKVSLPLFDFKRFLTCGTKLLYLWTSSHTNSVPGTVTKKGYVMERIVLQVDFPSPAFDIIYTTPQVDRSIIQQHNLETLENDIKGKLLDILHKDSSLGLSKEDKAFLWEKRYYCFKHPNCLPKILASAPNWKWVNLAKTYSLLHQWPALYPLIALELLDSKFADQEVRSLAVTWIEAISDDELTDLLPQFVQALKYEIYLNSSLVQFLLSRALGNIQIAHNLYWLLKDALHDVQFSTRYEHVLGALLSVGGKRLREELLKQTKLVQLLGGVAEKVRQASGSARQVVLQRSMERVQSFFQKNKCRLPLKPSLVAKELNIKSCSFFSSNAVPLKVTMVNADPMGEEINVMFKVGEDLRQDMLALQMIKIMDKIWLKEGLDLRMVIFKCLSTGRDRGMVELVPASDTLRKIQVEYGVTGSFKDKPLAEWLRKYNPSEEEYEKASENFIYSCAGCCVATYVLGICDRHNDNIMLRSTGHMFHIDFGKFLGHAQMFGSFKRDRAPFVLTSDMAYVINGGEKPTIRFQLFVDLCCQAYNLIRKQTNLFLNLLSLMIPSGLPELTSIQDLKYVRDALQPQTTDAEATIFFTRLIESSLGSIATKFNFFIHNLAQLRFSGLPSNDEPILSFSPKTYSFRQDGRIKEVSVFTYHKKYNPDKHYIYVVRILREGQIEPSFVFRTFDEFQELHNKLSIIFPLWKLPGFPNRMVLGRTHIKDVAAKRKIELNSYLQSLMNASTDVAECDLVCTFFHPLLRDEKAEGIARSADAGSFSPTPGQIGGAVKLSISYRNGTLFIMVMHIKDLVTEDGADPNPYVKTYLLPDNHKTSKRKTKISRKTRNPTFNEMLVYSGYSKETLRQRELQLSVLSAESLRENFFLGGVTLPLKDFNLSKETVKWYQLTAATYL

[9] = target: Phosphatidylinositol 4-phosphate 3-kinase C2 domain-containing subunit beta (Homo sapiens, UniProt O00750); assay: Inhibition of PI3KC2beta
[10] = target: Phosphatidylinositol 3-kinase catalytic subunit type 3 (Homo sapiens, UniProt Q8NEB9); assay: Inhibition of Vps34
Chain of Phosphatidylinositol 3-kinase catalytic subunit type 3 (Q8NEB9 whole entry): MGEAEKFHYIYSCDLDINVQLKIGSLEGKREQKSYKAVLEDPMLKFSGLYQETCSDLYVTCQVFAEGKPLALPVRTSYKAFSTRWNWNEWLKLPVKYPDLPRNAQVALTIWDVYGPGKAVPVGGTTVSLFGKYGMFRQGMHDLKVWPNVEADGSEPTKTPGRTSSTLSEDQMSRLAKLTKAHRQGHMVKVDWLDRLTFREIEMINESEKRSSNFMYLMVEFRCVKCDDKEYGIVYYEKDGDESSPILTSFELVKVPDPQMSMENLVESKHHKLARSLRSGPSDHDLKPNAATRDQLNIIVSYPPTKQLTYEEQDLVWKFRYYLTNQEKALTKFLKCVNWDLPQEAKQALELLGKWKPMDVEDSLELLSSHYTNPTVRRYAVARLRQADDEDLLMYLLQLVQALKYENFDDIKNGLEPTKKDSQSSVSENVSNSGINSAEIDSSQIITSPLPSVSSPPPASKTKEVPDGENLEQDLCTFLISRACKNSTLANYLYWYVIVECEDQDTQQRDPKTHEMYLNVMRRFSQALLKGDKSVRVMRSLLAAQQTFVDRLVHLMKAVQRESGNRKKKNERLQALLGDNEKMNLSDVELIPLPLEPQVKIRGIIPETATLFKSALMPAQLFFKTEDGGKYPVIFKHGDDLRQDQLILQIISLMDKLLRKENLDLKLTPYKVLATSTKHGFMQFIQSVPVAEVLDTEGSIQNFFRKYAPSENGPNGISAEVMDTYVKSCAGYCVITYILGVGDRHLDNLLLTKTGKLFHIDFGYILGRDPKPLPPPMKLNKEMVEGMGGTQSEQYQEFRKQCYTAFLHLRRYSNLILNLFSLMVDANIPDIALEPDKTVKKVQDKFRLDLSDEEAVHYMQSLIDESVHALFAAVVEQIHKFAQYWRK

[11] = target: Serine/threonine-protein kinase mTOR (Homo sapiens, UniProt P42345); assay: Inhibition of mTOR
[12] = Inhibition of protein kinase
[13] = test system: KPL4; assay: Antitumor activity against human KPL4 cells expressing PI3Kalpha H1047R mutant xenografted in mouse assessed as tumor regression at 12.5 mg/kg, po for 6 weeks; type: functional, organism-based; parameters: dose 12.5 mg/kg
[14] = test system: KPL4; assay: Antitumor activity against human KPL4 cells expressing PI3Kalpha H1047R mutant xenografted in mouse assessed as tumor regression at 12.5 mg/kg, po administered intermittent dosing schedule qd for 2 weeks on/1 week off; type: functional, organism-based; parameters: dose 12.5 mg/kg
[15] = test system: KPL4; assay: Antitumor activity against human KPL4 cells expressing PI3Kalpha H1047R mutant xenografted in mouse assessed as tumor regression at 12.5 mg/kg, po administered intermittent dosing schedule 5 days on/2 days off; type: functional, organism-based; parameters: dose 12.5 mg/kg
[16] = Half life in mouse at 2 mg/kg, iv; type: ADME, organism-based; parameters: dose 2 mg/kg, route intravenous; conditions: in vivo
[17] = Clearance in mouse at 2 mg/kg, iv; type: ADME, organism-based; parameters: dose 2 mg/kg, route intravenous; conditions: in vivo
[18] = AUC (infinity) in mouse at 2 mg/kg, iv; type: ADME, organism-based; parameters: time infinity, dose 2 mg/kg, route intravenous; conditions: plasma
[19] = Half life in mouse at 1 mg/kg, po; type: ADME, organism-based; parameters: dose 1 mg/kg, route oral; conditions: in vivo
[20] = Tmax in mouse at 1 mg/kg, po; type: ADME, organism-based; parameters: dose 1 mg/kg, route oral; conditions: in vivo
[21] = AUC (infinity) in mouse at 1 mg/kg, po; type: ADME, organism-based; parameters: time infinity, dose 1 mg/kg, route oral; conditions: plasma
[22] = Oral bioavailability in mouse at 1 mg/kg; type: ADME, organism-based; conditions: in vivo
[23] = Half life in rat at 0.5 mg/kg, iv; type: ADME, organism-based; parameters: dose 0.5 mg/kg, route intravenous; conditions: in vivo
[24] = Clearance in rat at 0.5 mg/kg, iv; type: ADME, organism-based; parameters: dose 0.5 mg/kg, route intravenous; conditions: in vivo
[25] = AUC (infinity) in rat at 0.5 mg/kg, iv; type: ADME, organism-based; parameters: dose 0.5 mg/kg, route intravenous, time infinity; conditions: plasma
[26] = Half life in rat at 1 mg/kg, po; type: ADME, organism-based; parameters: dose 1 mg/kg, route oral; conditions: in vivo
[27] = Tmax in rat at 1 mg/kg, po; type: ADME, organism-based; parameters: dose 1 mg/kg, route oral; conditions: in vivo
[28] = AUC (infinity) in rat at 1 mg/kg, po; type: ADME, organism-based; parameters: time infinity, dose 1 mg/kg, route oral; conditions: plasma
[29] = Oral bioavailability in rat at 1 mg/kg; type: ADME, organism-based; conditions: in vivo
[30] = Half life in dog at 0.25 mg/kg, iv; type: ADME, organism-based, Canis lupus familiaris; parameters: dose 0.25 mg/kg, route intravenous; conditions: in vivo
[31] = Clearance in dog at 0.25 mg/kg, iv; type: ADME, organism-based, Canis lupus familiaris; parameters: dose 0.25 mg/kg, route intravenous; conditions: in vivo
[32] = AUC (infinity) in dog at 0.25 mg/kg, iv; type: ADME, organism-based, Canis lupus familiaris; parameters: time infinity, dose 0.25 mg/kg, route intravenous; conditions: plasma
[33] = Half life in dog at 1 mg/kg, po; type: ADME, organism-based, Canis lupus familiaris; parameters: dose 1 mg/kg, route oral; conditions: in vivo
[34] = Tmax in dog at 1 mg/kg, po; type: ADME, organism-based, Canis lupus familiaris; parameters: dose 1 mg/kg, route oral; conditions: in vivo
[35] = AUC (infinity) in dog at 1 mg/kg, po; type: ADME, organism-based, Canis lupus familiaris; parameters: time infinity, dose 1 mg/kg, route oral; conditions: plasma
[36] = Oral bioavailability in dog at 1 mg/kg; type: ADME, organism-based, Canis lupus familiaris; conditions: in vivo
[37] = Half life in monkey at 0.25 mg/kg, iv; type: ADME, organism-based, Macaca mulatta; parameters: dose 0.25 mg/kg, route intravenous; conditions: rhesus monkey, in vivo
[38] = Clearance in monkey at 0.25 mg/kg, iv; type: ADME, organism-based, Macaca mulatta; parameters: dose 0.25 mg/kg, route intravenous; conditions: rhesus monkey, in vivo
[39] = Half life in monkey at 1 mg/kg, po; type: ADME, organism-based, Macaca mulatta; parameters: dose 1 mg/kg, route oral; conditions: rhesus monkey, in vivo
[40] = Tmax in monkey at 1 mg/kg, po; type: ADME, organism-based, Macaca mulatta; parameters: dose 1 mg/kg, route oral; conditions: rhesus monkey, in vivo
[41] = AUC (infinity) in monkey at 1 mg/kg, po; type: ADME, organism-based, Macaca mulatta; parameters: time infinity, dose 1 mg/kg, route oral; conditions: rhesus monkey, plasma
[42] = Oral bioavailability in monkey at 1 mg/kg; type: ADME, organism-based, Macaca mulatta; conditions: rhesus monkey, in vivo

IC50 [1]: 8.6 nM
half-life [3]: 0.183 h
half-life [4]: 0.35 h
bioavailability [5]: 1.6%
Compound: Oc1cccc(-c2nc(N3CCOCC3)nc3c2CCN3c2ccncc2)c1
IC50 [2]: 450 nM

IC50 [1]: 33 nM
half-life [3]: > 1 h
half-life [4]: 1.18 h
bioavailability [5]: 41%
Compound: Nc1ncc(-c2nc(N3CCOCC3)nc3c2CCN3c2cccnc2)cn1
IC50 [2]: 15 nM
inhibition in vivo at 100 mg/kg [6]: 112%

IC50 [1]: 41 nM
Compound: Oc1cccc(-c2nc(N3CCOCC3)nc3c2CCN3c2cccnc2)c1

IC50 [1]: 77 nM
Compound: Oc1cccc(-c2nc(N3CCOCC3)nc3c2CCN3c2ccc3nc[nH]c3c2)c1

half-life [4]: > 6 h
bioavailability [5]: 101%
IC50 [8]: > 10000 nM
IC50 [9]: 5300 nM
IC50 [10]: > 10000 nM
IC50 [11]: 1600 nM
IC50 [12]: > 10000 nM
half-life [16]: 1.7 h
clearance [17]: 17.5 mL/min/kg
AUC(0-inf) [18]: 1930 ng·h/mL
half-life [19]: 3.8 h
Tmax [20]: 0.25 h
AUC(0-inf) [21]: 978 ng·h/mL
bioavailability [22]: 101%
half-life [23]: 2.6 h
clearance [24]: 6.3 mL/min/kg
AUC(0-inf) [25]: 1350 ng·h/mL
half-life [26]: 3.5 h
Tmax [27]: 0.8 h
AUC(0-inf) [28]: 1790 ng·h/mL
bioavailability [29]: 66.2%
half-life [30]: 1.6 h
clearance [31]: 6.4 mL/min/kg
AUC(0-inf) [32]: 660 ng·h/mL
half-life [33]: 3.3 h
Tmax [34]: 4.5 h
AUC(0-inf) [35]: 1430 ng·h/mL
bioavailability [36]: 54.2%
half-life [37]: 3.2 h
clearance [38]: 6.2 mL/min/kg
half-life [39]: 6.7 h
Tmax [40]: 4 h
AUC(0-inf) [41]: 2170 ng·h/mL
bioavailability [42]: 78.4%
Compound: CS(=O)(=O)N1CCc2c(-c3cnc(N)nc3)nc(N3CCOCC3)nc21 [IZORLISIB]
inhibition in vivo at 25 mg/kg [7]: 101%
Activity [13]: Active
Activity [14]: Active
Activity [15]: Active
